Experimental data as given in patent publication US4072810A, “Coupled peroxides” (priority 1973, dated 1978).
Read-outs that look alike come from different tables or passages of the source.

Tests used:
[1] = Half-life of coupled and uncoupled hydroxy-peroxides in benzene; format: physicochemical; details: for t1/2: benzene, 0.1 molar, 100000 µM; for half-life relative to the hydroxy containing peroxide precursors: in words, see Example XVI
From the text: Half-Life Comparisons of Coupled and Uncoupled Hydroxy-Peroxides (Carried out in Benzene at 0.1 molar concentrations)

[2] = Initiation of vinyl monomer (styrene) polymerization
Description: This example illustrates the use of coupled peroxides of present disclosures as initiators of vinyl monomer polymerization. Compound [B] (from Example V) at a concentration of 5 × 10^-4 moles per deciliter of styrene, polymerized styrene at 100° C. at a rate of 6.20 × 10^-3 moles per liter per minute. When no initiator is present, the thermal polymerization of styrene at 100° C. proceeds at a rate of 2.82 × 10^-3 moles per liter per minute. Compound [A] (from Examples I, II, and III) at a concentration of 5 × 10^-4 moles per diciliter of styrene polymerized styrene 1.65 faster at 115° C. than the thermal polymerization rate when no polymerization initiator is present.

[3] = S.P.I. exotherm, curing an unsaturated polyester-styrene resin (Table V); details: 1% concentration; for Cure Time / Gel Time: 115° C.; for Peak: exotherm at 115° C.
Description: An unsaturated polyester resin was made by reacting maleic anhydride (1.0 mole), phthalic anhydride (1.0 mole), and propylene glycol (2.2 mole) until an acid number of 45-50 was obtained. To this was added hydroquinone at a 0.013% concentration. Seven parts of this unsaturated polyester was diluted with 3 parts of monomeric styrene to obtain a homogeneous blend having a viscosity of 13.08 poise and a specific gravity of 1.14. To 20 g. of this blend was added the 0.2 g. of the desired coupled peroxide and the resulting composition placed in a constant temperature bath at 115° C.
The internal temperature was recorded as function of time. The following results were obtained with some of the coupled compounds (Table V):
S.P.I. EXOTHERM AT 115° C. AND 1% CONCENTRATION
IN POLYESTER RESIN PREPARED IN EXAMPLE VIII

[4] = Crosslinking of polyethylene (Table I, xylene solvent extraction); details: for % Crosslinking: 30 minutes; for efficiency as crosslinking agent: in words, see Table I
Description: A mixture of the desired polymeric material and 0.01 mole of the difunctional coupled compound is blended together on a standard roll mill, such as used in the rubber industry. […]
The slabs are permitted to cool down and mature at room temperature for 24 hours. The mature slabs were then cut into dumbell shaped samples and tested for tensile strength on an Instron Tensile Tester, following ASTM procedure as described in D412-61T "Tension Testing of Vulcanized Rubber" or the crosslinking in the case of polyethylene is determined by the solvent extraction procedure. In addition to the polymer-peroxide mixture, the crosslinkable mixture, may contain co-agents such as sulfur, promoters, fillers, and reinforcing materials. Desirable fillers are carbon black, titanium dioxide, calcium silicate and alkaline earth metal carbonates.
In Table I the crosslinking ability of the coupled compounds of our invention in polyethylene are compared to a hydroxy-containing peroxide and to difunctional peroxides. Tables II, III, and IV show the versatility of the product of our invention in urethane rubber, ethylene-propylene rubber and silicone rubber.
The polyethylene used for this test was a low density polyethylene
Bakelite DYNH-1, having the following physical properties:
The crosslinking test was carried out at 340° and 375° F.
(1) The percentage crosslinking was determined by extraction of the
crosslinked sample with refluxing xylene. In all cases the polyethylene
charge was 100% extractable before crosslinking.
(2) Based on number of active oxygens per mole.

[5] = in words; milling step; cited from earlier work
[6] = Volatility and thermal stability of peroxides (in words); format: physicochemical
From the text: Some of the desirable properties that a peroxide has to have to be useful for crosslinking polyethylene are: low volatility, high thermal stability, and good efficiency with respect to its active oxygen content.
The volatility and the thermal stability are necessary requisites, since the peroxide has to tolerate the high temperatures of the milling operation, which is a necessary step to incorporate the peroxide with the polymer before the crosslinking process. If the peroxide is too volatile (as in the case of di-t-butyl peroxide) there would not be any peroxide left for the crosslinking process at the end of the milling step. If the peroxide is not volatile, but its thermal stability is low, a premature decomposition of the peroxide will take place during the milling step, which results in a premature crosslinking of the polymer. If this happens, the polymer cannot be shaped or formed any further since the thermoplastic polymer has become thermoset too soon.

CC(C)(C)OOC(=O)CCO [t-butylperoxy 3-hydroxypropionate, reference compound]
t1/2 ([1]; 100° C.): 13.0 h

CC(C)(C)OOC(=O)CCOC(=O)OCCC(=O)OOC(C)(C)C [Di[2-(t-butylperoxycarbonyl)ethyl]carbonate]
rate of styrene polymerization ([2]; 100° C., 5 × 10^-4 moles per deciliter of styrene): 6.20 × 10^-3 moles per liter per minute
t1/2 ([1]; 100° C.): 30.7 h
half-life relative to the hydroxy containing peroxide precursors [1]: almost double
Cure Time [3]: 8.5 min
Gel Time [3]: 7.1 min
Peak [3]: 450 ° F

CC(CC(C)(C)OOC(C)(C)C)OC(=O)OC(C)CC(C)(C)OOC(C)(C)C (stereo not drawn) [Di[1,3-dimethyl-3-(t-butylperoxy)butyl] carbonate]
styrene polymerization, faster than the thermal polymerization rate when no initiator is present ([2]; 115° C., 5 × 10^-4 moles per diciliter of styrene): 1.65
t1/2 ([1]; 115° C.): 26.8 h
half-life relative to the hydroxy containing peroxide precursors [1]: almost double
% Crosslinking ([4]; 340° F., 0.010 molar equivs.): 89.3%
% Crosslinking ([4]; 375° F., 0.010 molar equivs.): 89.7%
Cure Time [3]: 11.1 min
Gel Time [3]: 9.5 min
Peak [3]: 455 ° F

CC(C)(C)OOC(C)(C)C [di-t-butyl peroxide]
volatility [5]: too volatile

CC(C)(C)OOC(C)(C)C#CC(C)(C)OOC(C)(C)C [2,5-dimethyl-2,5-di(t-butylperoxy)-hexyne-3]
% Crosslinking ([4]; 340° F., 0.010 molar equivs.): 81.8%
% Crosslinking ([4]; 340° F., 0.015 molar equivs.): 86.0%
% Crosslinking ([4]; 375° F., 0.010 molar equivs.): 84.9%
% Crosslinking ([4]; 375° F., 0.015 molar equivs.): 87.7%
efficiency as crosslinking agent [4]: not as efficient in utilizing their active oxygen content as the difunctional peroxide of our invention

CC(CC(C)(C)OOC(C)(C)C)OC(=O)OCCOC(=O)OC(C)CC(C)(C)OOC(C)(C)C (stereo not drawn) [Ethylene Bis[1,3-dimethyl-3-(t-butylperoxy)-butyl carbonate]]
% Crosslinking ([4]; 340° F., 0.010 molar equivs.): 87.9%
% Crosslinking ([4]; 375° F., 0.010 molar equivs.): 87.4%
Cure Time [3]: 12.8 min
Gel Time [3]: 10.8 min
Peak [3]: 450 ° F

CC(C)(C)OOC(C)(C)CCC(C)(C)OOC(C)(C)C [2,5-dimethyl-2,5-di(t-butylperoxy)-hexane]
% Crosslinking ([4]; 340° F., 0.010 molar equivs.): 85.9%
% Crosslinking ([4]; 340° F., 0.015 molar equivs.): 89.3%
% Crosslinking ([4]; 375° F., 0.010 molar equivs.): 84.5%
% Crosslinking ([4]; 375° F., 0.015 molar equivs.): 88.0%
efficiency as crosslinking agent [4]: not as efficient in utilizing their active oxygen content as the difunctional peroxide of our invention

CC(CC(C)(C)OOC(C)(C)C)OC(=O)CCC(=O)OC(C)CC(C)(C)OOC(C)(C)C (stereo not drawn) [Di[1,3-dimethyl-3-(t-butylperoxy)butyl]succinate]
% Crosslinking ([4]; 340° F., 0.010 molar equivs.): 88.9%
% Crosslinking ([4]; 375° F., 0.010 molar equivs.): 89.2%

CC(O)CC(C)(C)OOC(C)(C)C (stereo not drawn) [2-Methyl-2-(t-butylperoxy)-4-pentanol]
t1/2 ([1]; 115° C.): 13.6 h
% Crosslinking ([4]; 340° F., 0.015 molar equivs.): 78.4%
% Crosslinking ([4]; 375° F., 0.015 molar equivs.): 75.4%
efficiency as crosslinking agent [4]: poor
thermal stability [6]: good
volatility [6]: low
